# According to PubChem BioAssay (NCI):
#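 Method: 48-hour compound exposure of cells in 96-well plates, five concentrations, linear interpolation of endpoints. TGI is the concentration that stops growth completely.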
# Legend:
# Assay in all cases: NCI anticancer screen, dose series, 48 h
# [1] = test system: OVCAR-5 ovarian
# [2] = test system: COLO 205 colon
# [3] = test system: OVCAR-4 ovarian
# [4] = test system: 786-0 renal
# [5] = test system: KM12 colon
# [6] = test system: SF-268 CNS
# [7] = test system: LOX IMVI melanoma
# [8] = test system: NCI-H522 lung
# [9] = test system: T-47D breast
# [10] = test system: A498 renal
# [11] = test system: SF-539 CNS
# [12] = test system: U251 CNS
# [13] = test system: HCC-2998 colon
# [14] = test system: A549 NSCLC
# [15] = test system: NCI-H226 lung
# [16] = test system: SK-OV-3 ovarian
# [17] = test system: OVCAR-3 ovarian
# [18] = test system: MDA-MB-435
# [19] = test system: RXF 393 renal
# [20] = test system: HCT-116 colon
# [21] = test system: HOP-62 NSCLC
# [22] = test system: BT-549 breast
# [23] = test system: MDA-MB-231 breast
# [24] = test system: TK-10 renal
# [25] = test system: SK-MEL-2 melanoma
# [26] = test system: HL-60(TB) leukemia
# [27] = test system: NCI-H460 lung
# [28] = test system: MCF7 breast
# [29] = test system: CAKI-1 renal
# [30] = test system: MALME-3M melanoma
# [31] = test system: UO-31 renal
# [32] = test system: OVCAR-8 ovarian
# [33] = test system: SNB-75 CNS
# [34] = test system: HS 578T breast
# [35] = test system: IGROV1 ovarian
# [36] = test system: MDA-N
# [37] = test system: EKVX NSCLC
# [38] = test system: SR leukemia
# [39] = test system: SN12C renal
# [40] = test system: HT29 colon
# [41] = test system: HOP-92 NSCLC
# [42] = test system: PC-3 prostate
# [43] = test system: ACHN renal
# [44] = test system: DU-145 prostate
# [45] = test system: CCRF-CEM leukemia
# [46] = test system: MOLT-4 leukemia
# [47] = test system: SK-MEL-5 melanoma
# [48] = test system: M14 melanoma
# [49] = test system: SNB-19 CNS
# [50] = test system: SF-295 CNS
# [51] = test system: SW-620 colon
# [52] = test system: SK-MEL-28 melanoma
# [53] = test system: UACC-257 melanoma
# [54] = test system: NCI-H23 lung
# [55] = test system: HCT-15 colon
# [56] = test system: UACC-62 melanoma
# [57] = test system: K-562 leukemia
# [58] = test system: NCI/ADR-RES ovarian
# [59] = test system: RPMI-8226 leukemia
smiles,measurement,setting,value
O=C1/C(=C/c2ccc(F)cc2)CNC/C1=C\c1ccc(F)cc1,TGI,[1],8.99 µM
same,TGI,[2],3.42 µM
same,TGI,[3],> 36.8 µM
same,TGI,[4],1.45 µM
same,TGI,[5],1.59 µM
same,TGI,[6],4.06 µM
same,TGI,[7],2.33 µM
same,TGI,[8],3.26 µM
same,TGI,[9],20.3 µM
same,TGI,[10],4.33 µM
same,TGI,[11],2.39 µM
same,TGI,[12],1.39 µM
same,TGI,[13],1.74 µM
same,TGI,[14],18.1 µM
same,TGI,[15],15.3 µM
same,TGI,[16],29.6 µM
same,TGI,[17],3.99 µM
same,TGI,[18],7.51 µM
same,TGI,[19],3.41 µM
same,TGI,[20],0.915 µM
same,TGI,[21],4.56 µM
same,TGI,[22],3.67 µM
same,TGI,[23],13.5 µM
same,TGI,[24],6.71 µM
same,TGI,[25],29 µM
same,TGI,[26],> 100 µM
same,TGI,[27],2.36 µM
same,TGI,[28],8.83 µM
same,TGI,[29],3.4 µM
same,TGI,[30],13.2 µM
same,TGI,[31],3.3 µM
same,TGI,[32],9.52 µM
same,TGI,[33],18.3 µM
same,TGI,[34],> 42.1 µM
same,TGI,[35],2.52 µM
same,TGI,[36],5.67 µM
same,TGI,[37],4.64 µM
same,TGI,[38],> 100 µM
same,TGI,[39],6.71 µM
same,TGI,[40],7.4 µM
same,TGI,[41],> 21.5 µM
same,TGI,[42],4.41 µM
same,TGI,[43],3.18 µM
same,TGI,[44],3.96 µM
same,TGI,[45],> 100 µM
same,TGI,[46],> 40.5 µM
same,TGI,[47],3.02 µM
same,TGI,[48],4.35 µM
same,TGI,[49],6.2 µM
same,TGI,[50],6.19 µM
same,TGI,[51],0.754 µM
same,TGI,[52],2.68 µM
same,TGI,[53],28 µM
same,TGI,[54],3.5 µM
same,TGI,[55],1.97 µM
Cc1nc(Cl)c(CBr)c(Cl)n1,TGI,[1],3.84 µM
same,TGI,[2],3.15 µM
same,TGI,[3],3.56 µM
same,TGI,[4],1 µM
same,TGI,[5],2.72 µM
same,TGI,[56],3.46 µM
same,TGI,[6],8.85 µM
same,TGI,[7],1.77 µM
same,TGI,[8],1.15 µM
same,TGI,[9],4.5 µM
same,TGI,[10],24.7 µM
same,TGI,[11],3.72 µM
same,TGI,[12],4.1 µM
same,TGI,[13],11.5 µM
same,TGI,[14],12.4 µM
same,TGI,[15],6.73 µM
same,TGI,[16],12.7 µM
same,TGI,[17],1.97 µM
same,TGI,[18],3.3 µM
same,TGI,[19],5.03 µM
same,TGI,[20],1.19 µM
same,TGI,[57],0.887 µM
same,TGI,[21],4.03 µM
same,TGI,[22],0.747 µM
same,TGI,[23],3.67 µM
same,TGI,[24],3.68 µM
same,TGI,[25],4.68 µM
same,TGI,[27],8.38 µM
same,TGI,[28],2.17 µM
same,TGI,[29],4.01 µM
same,TGI,[30],2.92 µM
same,TGI,[31],3.2 µM
same,TGI,[32],6.47 µM
same,TGI,[33],2.26 µM
same,TGI,[34],5.94 µM
same,TGI,[35],3.39 µM
same,TGI,[36],2.97 µM
same,TGI,[37],11.8 µM
same,TGI,[38],0.554 µM
same,TGI,[39],3.75 µM
same,TGI,[42],3.13 µM
same,TGI,[43],3.15 µM
same,TGI,[44],8.33 µM
same,TGI,[45],0.772 µM
same,TGI,[46],1.09 µM
same,TGI,[47],2.88 µM
same,TGI,[48],0.949 µM
same,TGI,[49],11.2 µM
same,TGI,[50],22.9 µM
same,TGI,[52],3.07 µM
same,TGI,[58],7.8 µM
same,TGI,[53],3.37 µM
same,TGI,[54],3.69 µM
same,TGI,[59],4.47 µM
same,TGI,[55],4.37 µM
